This note sets out measurements from PubChem BioAssay AID330 (DTP/NCI, 2004).

For the test, the system named is P388 leukemia ip, CD2F1 mice, survival T/C. In words: NCI In Vivo Anticancer Drug Screen. Data for tumor model P388 Leukemia (intraperitoneal) in CD2F1 (CDF1) mice. The conditions noted are these: endpoint: median survival time, higher = longer survival. The procedure, abridged:
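Mice carrying the transplanted tumor received test compound or vehicle. Survival was recorded in each group, and the value is the treated-group measurement divided by that of the vehicle-treated control group.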

Setting [1] is: dose: 12.5 mg/kg/injection, schedule: Q01DX009 (ip), vehicle: saline with Tween-80.
Where [2] appears, read: dose: 25.0 mg/kg/injection, schedule: Q01DX009 (ip), vehicle: saline with Tween-80.
Setting [3] is: dose: 50.0 mg/kg/injection, schedule: Q01DX005 (ip), vehicle: saline with Tween-80.
Where [4] appears, read: dose: 100.0 mg/kg/injection, schedule: Q01DX005 (ip), vehicle: saline with Tween-80.
[5] abbreviates: dose: 200.0 mg/kg/injection, schedule: Q01DX005 (ip), vehicle: saline with Tween-80.

SMILES strings stand for the structures. “And” between values parts separate entries of the source, which are not always exact repeats. Equal entries are not always repeated. Inconclusive results and toxic doses are left out.

`Cc1ccc(N=Cc2cccs2)cc1`: the T/C was 115 % of control (dose: 50.0 mg/kg/injection, schedule: Q01DX009 (ip), vehicle: Klucel (hydroxypropylcellulose) (HPC)) and 115 % of control (dose: 100.0 mg/kg/injection, schedule: Q01DX009 (ip), vehicle: Klucel (hydroxypropylcellulose) (HPC)).

As for `CCCOn1nnc2cc(Cl)ccc21`, the T/C runs as follows: (dose: 6.25 mg/kg/injection, schedule: Q01DX009 (ip), vehicle: saline with Tween-80) 102 % of control; under setting [1], 96 % of control; under setting [2], 99 % of control.

Consider `CN1COc2c(n(C)c(=O)[nH]c2=O)C1`, for which the T/C was 102 % of control and 106 % of control (dose: 50.0 mg/kg/injection, schedule: Q01DX005 (ip), vehicle: saline); 114 % of control and 115 % of control (dose: 100.0 mg/kg/injection, schedule: Q01DX005 (ip), vehicle: saline).

`c1ccc(CN2COc3c(ccc4c3OCN(Cc3ccccc3)C4)C2)cc1`: the T/C was 107 % of control (dose: 3.12 mg/kg/injection, schedule: Q01DX009 (ip), vehicle: Klucel (hydroxypropylcellulose) (HPC)); 104 % of control and 95 % of control (dose: 6.25 mg/kg/injection, schedule: Q01DX009 (ip), vehicle: Klucel (hydroxypropylcellulose) (HPC)); 103 % of control (dose: 12.5 mg/kg/injection, schedule: Q01DX009 (ip), vehicle: Klucel (hydroxypropylcellulose) (HPC)); 94 % of control (dose: 25.0 mg/kg/injection, schedule: Q01DX009 (ip), vehicle: Klucel (hydroxypropylcellulose) (HPC)).

Regarding `CC1(C)C(=O)N(Cl)C(=O)N1Cl`, the T/C reads like this: (dose: 6.25 mg/kg/injection, schedule: Q01DX005 (ip), vehicle: Klucel (hydroxypropylcellulose) (HPC)) 100 % of control and 95 % of control; (dose: 6.25 mg/kg/injection, schedule: Q01DX005 (ip), vehicle: saline with Tween-80) 92 % of control; (dose: 12.5 mg/kg/injection, schedule: Q01DX005 (ip), vehicle: Klucel (hydroxypropylcellulose) (HPC)) 102 % of control and 101 % of control; (dose: 12.5 mg/kg/injection, schedule: Q01DX005 (ip), vehicle: saline with Tween-80) 87 % of control; (dose: 16.5 mg/kg/injection, schedule: Q01DX009 (ip), vehicle: saline with Tween-80) 104 % of control; (dose: 25.0 mg/kg/injection, schedule: Q01DX005 (ip), vehicle: Klucel (hydroxypropylcellulose) (HPC)) 106 % of control. The T/C (dose: 25.0 mg/kg/injection, schedule: Q01DX005 (ip), vehicle: saline with Tween-80) is 97 % of control.

`Cc1cc(N(CCOS(C)(=O)=O)CCOS(C)(=O)=O)ccc1C=Nc1ccc(-c2csc(-c3ccc(Br)cc3)n2)cc1`: the T/C was 180 % of control under setting [2]; 209 % of control (dose: 50.0 mg/kg/injection, schedule: Q01DX009 (ip), vehicle: saline with Tween-80); 98 % of control and 90 % of control (dose: 100.0 mg/kg/injection, schedule: Q01DX009 (ip), vehicle: saline with Tween-80).

On to `CC(=O)NCCc1nc(-c2nc(C(=O)O)cs2)cs1`, for which the T/C reads like this: (dose: 12.5 mg/kg/injection, schedule: Q01DX009 (ip), vehicle: distilled water + Tween-80) 102 % of control; (dose: 25.0 mg/kg/injection, schedule: Q01DX009 (ip), vehicle: distilled water + Tween-80) 100 % of control; (dose: 50.0 mg/kg/injection, schedule: Q01DX009 (ip), vehicle: distilled water + Tween-80) 102 % of control; (dose: 100.0 mg/kg/injection, schedule: Q01DX009 (ip), vehicle: distilled water + Tween-80) 100 % of control.

Take `CCCCCN(CCCCC)CC(=O)O[C@H]1C[C@H]2CC[C@@]1(C)C2(C)C`: the T/C reads like this: under setting [3], 103 % of control; under setting [4], 105 % of control; under setting [5], 107 % of control.

As for `CC/C(=C\c1ccccc1)[N+](=O)[O-]`, the T/C by setting is: under setting [1], 103 % of control; under setting [2], 123 % of control.

As for `COc1cccc2c1C(=O)c1c(O)c3c(c(O)c1C2=O)CC(O)(C(C)=O)CC3OC1CC(N=CN(C)C)C(O)C(C)O1` (configuration not stated), the T/C (dose: 3.13 mg/kg/injection, schedule: Q04DX003 (ip), vehicle: distilled water + Tween-80) was 103 % of control; the T/C (dose: 6.25 mg/kg/injection, schedule: Q04DX003 (ip), vehicle: distilled water + Tween-80) was 110 % of control; the T/C (dose: 12.5 mg/kg/injection, schedule: Q04DX003 (ip), vehicle: distilled water + Tween-80) was 99 % of control and 119 % of control; the T/C (dose: 50.0 mg/kg/injection, schedule: Q04DX003 (ip), vehicle: distilled water + Tween-80) was 123 % of control.

Turning to `C/C(=N\NC(=S)Nc1nccs1)c1nccc2ccccc12`, the T/C was 100 % of control under setting [3], 114 % of control under setting [4] and 122 % of control under setting [5].
